The results in this text go back to patent US20260174750A1 (Merck Sharp & Dohme LLC, priority 2022, published 2026).

The assay has as its target T1, human DGAT2 (Homo sapiens, UniProt Q96PD7).
T1 sequence (Q96PD7 1-388): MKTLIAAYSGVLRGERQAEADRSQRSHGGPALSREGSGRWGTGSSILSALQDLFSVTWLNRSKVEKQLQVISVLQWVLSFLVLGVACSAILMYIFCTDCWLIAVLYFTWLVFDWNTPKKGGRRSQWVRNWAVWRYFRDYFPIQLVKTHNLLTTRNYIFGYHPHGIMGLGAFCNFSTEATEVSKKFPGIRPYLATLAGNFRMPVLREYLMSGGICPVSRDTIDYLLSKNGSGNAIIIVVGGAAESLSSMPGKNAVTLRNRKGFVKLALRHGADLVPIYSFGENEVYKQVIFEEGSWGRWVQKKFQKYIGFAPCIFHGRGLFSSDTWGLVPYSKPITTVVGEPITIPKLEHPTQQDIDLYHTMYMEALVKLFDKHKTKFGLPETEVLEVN
Nature of the assay: biochemical.
Protocol: Cell pellets were suspended in buffer containing 10 mM Tris-HCl pH 7.5, 1 mM EDTA, 250 mM sucrose and Complete Protease Inhibitor Cocktail (Sigma Aldrich), and sonicated on ice. Cell debris were removed by centrifugation at 2000×g for 15 minutes. Membrane fractions were isolated by ultracentrifugation (100,000×g), resuspended in the same buffer, and frozen (−80° C.) for later use. The protein concentration was determined with the Pierce™ BCA Protein Assay Kit (Thermo Fisher Scientific).
LC/MS/MS analyses were performed using Thermal Fisher's LX4-TSQ Vantage system. This system consists of an Agilent binary high-performance liquid chromatography (HPLC) pump and a TSQ Vantage triple quadrupole MS/MS instrument. For each sample, 2 μL samples from the top organic layer of in-plate liquid-liquid extraction were injected onto a Thermo Betabasic C4 column (2.1 mm×20 mm, 5 μm particle size). The samples were then eluted using the following conditions; mobile phase: Isopropanol:acetonitrile/10 mM ammonium formate=50/35/15 (v/v/v), flow rate: 0.8 mL/min, temperature: 25° C. Data was acquired in positive mode using a heated electrospray ionization (HESI) interface. […] The peak area was integrated by Xcalibur Quan software. The ratio between the ^13C18 triolein generated in the reaction and spiked in internal standard ^13C21-triolein was used to generate percentage inhibition and IC50 values. […] DGAT2 activity was determined by measuring the amount of enzymatic product ^13C18-triolein (^13C-1,2,3-Tri(cis-9-octadecenoyl)glycerol) using the membrane prep mentioned above. The assay was carried out in ABgene 384-well assay plates in a final volume of 25 μL at rt.
Usually IC50 stands for the concentration that gives 50% inhibition. A lower IC50 goes with greater potency. Regarding `CCOc1cccnc1Oc1ccc2nc(C(=O)NC3(C)CCS(=O)(=O)CC3)nn2c1` [Example 2, 6-[(3-ethoxy-2-pyridyl)oxy]-N-(4-methyl-1,1-dioxo-thian-4-yl)-[1,2,4]triazolo[1,5-a]pyridine-2-carboxamide], half-maximal inhibition (IC50) was put at 0.017 µM.
Molecule `CCOc1cccnc1Oc1ccc2nc(C(=O)NC3(C)CS(=O)(=O)C3)nn2c1` [Example 3, 6-[(3-ethoxy-2-pyridyl)oxy]-N-(3-methyl-1,1-dioxo-thietan-3-yl)-[1,2,4]triazolo[1,5-a]pyridine-2-carboxamide] displayed an IC50 of 0.103 µM.
As to `CCOc1cccnc1Oc1ccc2nc(C(=O)N[C@H]3CCOC3)nn2c1` [Example 4, 6-[(3-ethoxy-2-pyridyl)oxy]-N-[(3S)-tetrahydrofuran-3-yl]-[1,2,4]triazolo[1,5-a]pyridine-2-carboxamide], half-maximal inhibition (IC50) was put at 0.384 µM.
Turning to `CCOc1cccnc1Oc1ccc2nc(C(=O)N[C@@H]3CCOC3)nn2c1` [Example 5, 6-[(3-ethoxy-2-pyridyl)oxy]-N-[(3R)-tetrahydrofuran-3-yl]-[1,2,4]triazolo[1,5-a]pyridine-2-carboxamide], the IC50 amounted to 2.44 µM.
As for `CCOc1cccnc1Oc1ccc2nc(C(=O)N[C@H]3CC[C@@](OC)(C(F)(F)F)CC3)nn2c1` [Example 6, 6-[(3-ethoxy-2-pyridyl)oxy]-N-[4-methoxy-4-(trifluoromethyl)cyclohexyl]-[1,2,4]triazolo[1,5-a]pyridine-2-carboxamide], the midpoint of inhibition, the IC50, lay at 0.149 µM.
With `CC1(NC(=O)c2nc3ccc(Oc4ncccc4OCC(F)(F)F)cn3n2)CCS(=O)(=O)CC1` [Example 7, N-(4-methyl-1,1-dioxo-thian-4-yl)-6-[[3-(2,2,2-trifluoroethoxy)-2-pyridyl]oxy]-[1,2,4]triazolo[1,5-a]pyridine-2-carboxamide] the figure was 0.126 µM; with `CC1(NC(=O)c2nc3ccc(Oc4ncccc4OCC(F)(F)F)cn3n2)CCC(F)(F)CC1` [Example 8, N-(4,4-difluoro-1-methyl-cyclohexyl)-6-[[3-(2,2,2-trifluoroethoxy)-2-pyridyl]oxy]-[1,2,4]triazolo[1,5-a]pyridine-2-carboxamide], 0.177 µM.
`CC1(NC(=O)c2nc3ccc(Oc4ncccc4OCC(F)(F)F)cn3n2)CC(F)(F)C1` [Example 9] showed an IC50 of 8.25 µM.
In turn, `CC1(NC(=O)c2nc3ccc(Oc4ncc(Cl)cc4OCC(F)(F)F)cn3n2)CS(=O)(=O)C1` [Example 10, 6-[[5-chloro-3-(2,2,2-trifluoroethoxy)-2-pyridyl]oxy]-N-(3-methyl-1,1-dioxo-thietan-3-yl)-[1,2,4]triazolo[1,5-a]pyridine-2-carboxamide] displayed an IC50 of 0.151 µM.
Turning to `O=C(N[C@H]1CCCC(F)(F)[C@@H]1O)c1nc2ccc(Oc3ncc(Cl)cc3OCC(F)(F)F)cn2n1` [Example 11], the IC50 came out at 0.06 µM.
For `Cc1c(Oc2ncc(Cl)cc2OCC2(F)CC2)ccc2nc(C(=O)NC3(C)CCS(=O)(=O)CC3)nn12` [Example 15, 6-[[5-chloro-3-[(1-fluorocyclopropyl)methoxy]-2-pyridyl]oxy]-5-methyl-N-(4-methyl-1,1-dioxo-thian-4-yl)-[1,2,4]triazolo[1,5-a]pyridine-2-carboxamide] the value was 0.011 µM.
Regarding `Cc1c(Oc2ncc(F)cc2OCC2(F)CC2)ccc2nc(C(=O)NC3(C)CCS(=O)(=O)CC3)nn12` [Example 16, 6-[[5-fluoro-3-[(1-fluorocyclopropyl)methoxy]-2-pyridyl]oxy]-5-methyl-N-(4-methyl-1,1-dioxo-thian-4-yl)-[1,2,4]triazolo[1,5-a]pyridine-2-carboxamide], it took 0.025 µM to reach half-maximal inhibition (IC50).
`Cc1c(Oc2ncc(Cl)cc2OCC(C)(F)F)ccc2nc(C(=O)NC3(C)CCS(=O)(=O)CC3)nn12` [Example 18] came in with an IC50 of 0.05 µM.
With `Cc1c(Oc2ncc(F)cc2OCC(C)(F)F)ccc2nc(C(=O)NC3(C)CCS(=O)(=O)CC3)nn12` [Example 19, 6-[[3-(2,2-difluoropropoxy)-5-fluoro-2-pyridyl]oxy]-5-methyl-N-(4-methyl-1,1-dioxo-thian-4-yl)-[1,2,4]triazolo[1,5-a]pyridine-2-carboxamide], 0.21 µM corresponded to half-maximal inhibition (IC50).
With `Cc1c(Oc2ncc(Cl)cc2OCC(F)(F)F)ccc2nc(C(=O)N[C@H]3CCCC(F)(F)[C@@H]3O)nn12` [Example 21, 6-[[5-chloro-3-(2,2,2-trifluoroethoxy)-2-pyridyl]oxy]-N-[(1S,2R)-3,3-difluoro-2-hydroxy-cyclohexyl]-5-methyl-[1,2,4]triazolo[1,5-a]pyridine-2-carboxamide] the figure was 0.581 µM.
On to `Cc1cc2nc(C(=O)N[C@H]3CCCC(F)(F)[C@@H]3O)nn2cc1Oc1ncc(Cl)cc1OCC(F)(F)F` [Example 23, 6-[[5-chloro-3-(2,2,2-trifluoroethoxy)-2-pyridyl]oxy]-N-[(1S,2R)-3,3-difluoro-2-hydroxy-cyclohexyl]-7-methyl-[1,2,4]triazolo[1,5-a]pyridine-2-carboxamide], for which the IC50 was 0.091 µM.
With `Cc1cc2nc(C(=O)NC3(C)CCS(=O)(=O)CC3)nn2c(C)c1Oc1ncc(Cl)cc1OCC(F)(F)F` [Example 24, 6-((5-Chloro-3-(2,2,2-trifluoroethoxy)pyridin-2-yl)oxy)-5,7-dimethyl-N-(4-methyl-1,1-dioxidotetrahydro-2H-thiopyran-4-yl)-[1,2,4]triazolo[1,5-a]pyridine-2-carboxamide] the figure was 0.181 µM; with `Cc1cc2nc(C(=O)NC3(C)CCS(=O)(=O)CC3)nn2c(C)c1Oc1nccnc1OCC(F)(F)F` [Example 25, 5,7-dimethyl-N-(4-methyl-1,1-dioxo-thian-4-yl)-6-[3-(2,2,2-trifluoroethoxy)pyrazin-2-yl]oxy-[1,2,4]triazolo[1,5-a]pyridine-2-carboxamide], 0.091 µM; with `CC1(NC(=O)c2nc3c(F)cc(Oc4ncc(Cl)cc4OCC(F)(F)F)cn3n2)CCS(=O)(=O)CC1` [Example 26, 6-((5-Chloro-3-(2,2,2-trifluoroethoxy)pyridin-2-yl)oxy)-8-fluoro-N-(4-methyl-1,1-dioxidotetrahydro-2H-thiopyran-4-yl)-[1,2,4]triazolo[1,5-a]pyridine-2-carboxamide], 0.0095 µM.
On to `Cc1c(Oc2ncc(Cl)cc2OCC(F)(F)F)cc(F)c2nc(C(=O)NC3(C)CCS(=O)(=O)CC3)nn12` [Example 28, 6-[[5-Chloro-3-(2,2,2-trifluoroethoxy)-2-pyridyl]oxy]-8-fluoro-5-methyl-N-(4-methyl-1,1-dioxo-thian-4-yl)-[1,2,4]triazolo[1,5-a]pyridine-2-carboxamide], for which the midpoint of inhibition, the IC50, lay at 0.012 µM.
In the case of `Cc1c(Oc2ncc(Cl)cc2OCC(F)(F)F)cc(F)c2nc(C(=O)NC3(C)CS(=O)(=O)C3)nn12` [Example 29, 6-[[5-chloro-3-(2,2,2-trifluoroethoxy)-2-pyridyl]oxy]-8-fluoro-5-methyl-N-(3-methyl-1,1-dioxo-thietan-3-yl)-[1,2,4]triazolo[1,5-a]pyridine-2-carboxamide], the IC50 was 0.383 µM.
Take `Cc1c(Oc2ncc(F)cc2OCC(F)(F)F)cc(F)c2nc(C(=O)NC3(C)CCS(=O)(=O)CC3)nn12` [Example 30, 8-fluoro-6-[[5-fluoro-3-(2,2,2-trifluoroethoxy)-2-pyridyl]oxy]-5-methyl-N-(4-methyl-1,1-dioxo-thian-4-yl)-[1,2,4]triazolo[1,5-a]pyridine-2-carboxamide]: 0.019 µM corresponded to half-maximal inhibition (IC50).
`Cc1c(Oc2ncc(Cl)cc2OCC(C)(F)F)cc(F)c2nc(C(=O)NC3(C)CCS(=O)(=O)CC3)nn12` [Example 31, 6-[[5-chloro-3-(2,2-difluoropropoxy)-2-pyridyl]oxy]-8-fluoro-5-methyl-N-(4-methyl-1,1-dioxo-thian-4-yl)-[1,2,4]triazolo[1,5-a]pyridine-2-carboxamide] came in with an IC50 of 0.03 µM.
In the case of `Cc1c(Oc2ncc(F)cc2OCC(C)(F)F)cc(F)c2nc(C(=O)NC3(C)CCS(=O)(=O)CC3)nn12` [Example 32, 6-[[3-(2,2-difluoropropoxy)-5-fluoro-2-pyridyl]oxy]-8-fluoro-5-methyl-N-(4-methyl-1,1-dioxo-thian-4-yl)-[1,2,4]triazolo[1,5-a]pyridine-2-carboxamide], the IC50 was found to be 0.061 µM.
With `Cc1c(Oc2nccnc2OCC(F)F)cc(F)c2nc(C(=O)NC3(C)CCS(=O)(=O)CC3)nn12` [Example 34, 6-[3-(2,2-difluoroethoxy)pyrazin-2-yl]oxy-8-fluoro-5-methyl-N-(4-methyl-1,1-dioxo-thian-4-yl)-[1,2,4]triazolo[1,5-a]pyridine-2-carboxamide] the figure was 0.031 µM.
The molecule `Cc1c(OCc2ncc(F)cc2OCC(F)(F)F)ccc2nc(C(=O)NC3(C)CCS(=O)(=O)CC3)nn12` [Example 35, 6-((5-Fluoro-3-(2,2,2-trifluoroethoxy)pyridin-2-yl)methoxy)-5-methyl-N-(4-methyl-1,1-dioxidotetrahydro-2H-thiopyran-4-yl)-[1,2,4]triazolo[1,5-a]pyridine-2-carboxamide] displayed an IC50 of 1.68 µM.
For the molecule `Cc1c(OCc2ncc(Cl)cc2OCC(F)F)ccc2nc(C(=O)NC3(C)CCS(=O)(=O)CC3)nn12` [Example 36, 6-((5-chloro-3-(2,2-difluoroethoxy)pyridin-2-yl)methoxy)-5-methyl-N-(4-methyl-1,1-dioxidotetrahydro-2H-thiopyran-4-yl)-[1,2,4]triazolo[1,5-a]pyridine-2-carboxamide], the IC50 stood at 0.336 µM.
